Measurements: patent US20120094995A1, “2-AZA-BICYCLO[2.2.1]HEPTANE COMPOUNDS AND USES THEREOF” (ASTRAZENECA AB, priority 2009, published 2012)

These compounds were tested against T1, human GlyT1b (Homo sapiens, UniProt P48067) (assay: [3H] Glycine Uptake Assay (SPA) in recombinant hGlyT1b-CHO cells). Settings: Table 1.
T1 construct: expressed in transfected cells
T1 sequence (P48067 1-652 isoform P48067-3): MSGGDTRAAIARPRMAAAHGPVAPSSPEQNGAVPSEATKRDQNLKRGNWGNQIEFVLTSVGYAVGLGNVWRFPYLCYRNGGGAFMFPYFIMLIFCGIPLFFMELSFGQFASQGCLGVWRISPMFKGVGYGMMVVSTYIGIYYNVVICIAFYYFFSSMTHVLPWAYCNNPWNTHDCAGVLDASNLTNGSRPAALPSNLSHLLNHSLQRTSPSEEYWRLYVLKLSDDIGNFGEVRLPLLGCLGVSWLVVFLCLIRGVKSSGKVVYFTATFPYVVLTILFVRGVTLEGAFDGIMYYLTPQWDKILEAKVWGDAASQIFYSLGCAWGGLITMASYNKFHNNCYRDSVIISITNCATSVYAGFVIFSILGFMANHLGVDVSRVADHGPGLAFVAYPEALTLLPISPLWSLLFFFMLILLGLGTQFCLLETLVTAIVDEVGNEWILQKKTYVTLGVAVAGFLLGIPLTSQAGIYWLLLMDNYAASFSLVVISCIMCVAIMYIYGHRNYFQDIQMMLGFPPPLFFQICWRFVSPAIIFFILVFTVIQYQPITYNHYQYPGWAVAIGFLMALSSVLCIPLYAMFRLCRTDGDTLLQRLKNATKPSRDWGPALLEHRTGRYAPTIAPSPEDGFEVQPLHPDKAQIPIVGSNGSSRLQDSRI
Type: cell-based
Procedure: A. [3H] Glycine Uptake Assay
Preparation of recombinant human GlyT1b-CHO cells (hGlyT1b-CHO). The human GlyT1b CDS (GC002087, NM_006934) was cloned downstream of a CMV promoter in a bicistronic expression vector containing a hygromycin B resistance gene. CHO-K1 cells (ATCC) were transfected with the recombinant vector containing GlyT1b using Lipofectamine 2000 (Invitrogen) and cultured in Ham's/F12 media supplemented with 10% fetal bovine serum, 2 mM L-glutamine at 37° C., 5% CO2, 90% humidity. Twenty-four hours after transfection, cells were diluted and switched to media containing 0.5 mg/ml hygromycin B. Antibiotic resistant cells were obtained after 21 days of culture in the presence of hygromycin B. Clonal stable cell lines were isolated by FACS single cell deposition into 96-well plates.
Cells used were Recombinant hGlyT1b/CHO. These cells were cultured in cell culture medium (Ham's/F12 (Modified) (Mediatech, 10-080-CM), containing 10% FBS, 2 mM L-glutamine (Invitrogen 25030-149) and 0.5 mg/mL hygromycin B (Invitrogen, 10687-010)) in 175 cm^2 flasks until near confluence before use in the assay.
Cell medium in a cell culture flask containing near confluent cells was removed and 5 mL of cell stripper was added to submerge all cells on the surface of the culture flask. Cell stripper was removed immediately and the flask incubated in a 37° C. incubator for ˜5 min. Cells were shaken loose and suspended in 5 mL of PBS. After splitting cells to initiate a new flask(s), the cells remaining were collected by centrifugation, counted, and resuspended in assay buffer to a density of ˜2 million/mL. The cell suspension was kept at room temperature before use. The assays buffer was 10 mM HEPES, pH 7.4, containing 150 mM NaCl, 5 mM KCl, 1.5 mM CaCl2, 1.5 mM MgCl2, 0.45 mg/mL L-alanine (added fresh), and 1.8 mg/mL D-glucose (added fresh).
WGA PTV beads were suspended in assay buffer (2 mg/ml) containing 60 nM [^3H]Glycine (PerkinElmer (NET-004, [2-^3H]Glycine, 53.3 Ci/mmol, 1 mCi/mL)) and 20 μM unlabeled glycine and the suspension was kept at room temperature before assay.
To the wells of an OptiPlate, 2 μl DMSO containing a test compound was spotted. This was followed by addition of 98 μl of cell suspension (˜1 million/ml final). After incubating cells with compound for ˜15 min, 100 μl of the SPA (200 μg/well final) and isotope mixture (30 nM isotope with 10 μM cold glycine, final) was added to initiate the glycine uptake. At 2 h, the plate was read on a TopCount to quantify SPA counts.

Compound	IC50
CN1C2CCC1(C(NC(=O)c1cccc(Cl)c1Cl)c1ccccc1)CC2 (single isomer, unassigned) [Example 13, (R*)-2,3-dichloro-N-((7-methyl-7-azabicyclo[2.2.1]heptan-1-yl)(phenyl)methyl)benzamide]	72 nM
CN1C2CCC1([C@H](NC(=O)c1ccc(Cl)cc1Cl)c1ccccc1)CC2 (single isomer, unassigned) [Example 14, (R*)-2,4-dichloro-N((7-methy1-7-azabicyclo[2.2.1]heptan-1-yl)(phenyl)methyl)benzamide]	305 nM
COCCN1C2CCC1(C(NC(=O)c1c(C)cccc1C)c1ccncc1)CC2 (single isomer, unassigned) [Example 6, (R*)—N-((7-(2-methoxyethyl)-7-azabicyclo[2.2.1]heptan-1-yl)(pyridin-4-yl)methyl)-2,6-dimethylbenzamide]	26 nM
CN1C2CCC1(C(NC(=O)c1cccc(C(F)(F)F)c1Cl)c1ccccc1)CC2 (stereo not shown) [Example 17, 2-chloro-N-((7-methyl-7-azabicyclo[2.2.1]heptan-1-yl)(phenyl)methyl)-3-(trifluoromethyl)benzamide]	17.9 nM
Cc1ccc(C(NC(=O)c2c(C)cccc2C)C23CCC(CC2)N3C)o1 (stereo not shown) [Example 9, 2,6-dimethyl-N-((7-methyl-7-azabicyclo[2.2.1]heptan-1-yl)(5-methylfuran-2-yl)methyl)benzamide]	98 nM
CN1C2CCC1(C(NC(=O)c1ccnc(Cl)c1Cl)c1ccccc1)CC2 (single isomer, unassigned) [Example 15, (R*)-2,3-dichloro-N-((7-methyl-7-azabicyclo[2.2.1]heptan-1-yl)(phenyl)methyl)isonicotinamide]	210 nM
COc1cccc(OC)c1C(=O)NC(c1ccccc1)C12CCC(CC1)N2C (stereo not shown) [Example 11, 2,6-dimethoxy-N-((7-methyl-7-azabicyclo[2.2.1]heptan-1-yl)(phenyl)methyl)benzamide]	349 nM

Same assay, conditions: Table 2, unit from table title

Compound	IC50
CCCCN1C2CCC1([C@H](NC(=O)c1c(C)cccc1C)c1ccccc1)CC2 [Example 27]	11 nM
CCCCc1cccc(C(NC(=O)c2c(C)cccc2C)C23CCC(CC2)N3C)c1 (stereo not shown) [Example 103]	119 nM
CN1C2CCC1(C(NC(=O)c1cccc(C(F)(F)F)c1Cl)c1ccccc1)CC2 (stereo not shown) [Example 20]	26 nM
CSc1ncccc1C(=O)NC(c1ccccc1)C12CCC(CC1)N2C(C)C (stereo not shown) [Example 48]	23 nM
Cc1ccc(C(NC(=O)c2c(C)cccc2C)C23CCC(CC2)N3C)cn1 (stereo not shown) [Example 68]	129 nM
CC(=O)NCCN1C2CCC1([C@H](NC(=O)c1c(C)cccc1C)c1ccccc1)CC2 [Example 42]	6 nM
Cc1cccc(C)c1C(=O)N[C@H](c1ccccc1)C12CCC(CC1)N2CC1CCC1 [Example 29]	9 nM
Cc1cccc(Cl)c1C(=O)NC(c1ccccc1)C12CCC(CC1)N2C (stereo not shown) [Example 67]	6 nM
Cc1cccc(C)c1C(=O)NC(c1ccc(O)cc1)C12CCC(CC1)N2C (stereo not shown) [Example 99]	6 nM
Cc1cccc(C)c1C(=O)NC(c1cccnc1)C12CCC(CC1)N2C (stereo not shown) [Example 65]	31 nM
CCN1C2CCC1(C(NC(=O)c1ccnc(C(F)(F)F)c1F)c1ccccc1)CC2 (stereo not shown) [Example 52]	297 nM
Cc1cccc(C)c1C(=O)NC(c1cccnc1)C12CCC(CC1)N2C (single isomer, unassigned) [Example 74]	< 3 nM
CSc1ncccc1C(=O)NC(c1ccccc1)C12CCC(CC1)N2C1CCC1 (stereo not shown) [Example 44]	243 nM
Cc1ccccc1C(=O)NC(c1ccccc1)C12CCC(CC1)N2C (single isomer, unassigned) [Example 59]	38 nM
Cc1cc(C(NC(=O)c2c(C)cccc2C)C23CCC(CC2)N3)ccn1 (stereo not shown) [Example 83]	136 nM
COCCCN1C2CCC1([C@H](NC(=O)c1c(C)cccc1C)c1ccccc1)CC2 [Example 28]	12 nM
Cc1cccc(C)c1C(=O)N[C@H](c1ccccc1)C12CCC(CC1)N2CC1CCCO1 (stereo partly shown) [Example 56]	4 nM
Cc1cccc(C)c1C(=O)NC(c1cccnc1)C12CCC(CC1)N2 (stereo not shown) [Example 60]	30 nM
COCCN1C2CCC1([C@H](NC(=O)c1ccc(F)cc1C)c1ccccc1)CC2 [Example 96]	167 nM
Cc1ccc(C(NC(=O)c2c(C)cccc2C)C23CCC(CC2)N3C)o1 (single isomer, unassigned) [Example 87]	14 nM
CSc1ncccc1C(=O)NC(c1ccncc1)C12CCC(CC1)N2C1CCC1 (single isomer, unassigned) [Example 101]	160 nM

Compound	IC50
Cc1cccc(C)c1C(=O)NC(c1cccc(C#N)c1)C12CCC(CC1)N2C (stereo not shown) [Example 79]	87 nM
Cc1cccc(C)c1C(=O)N[C@H](c1cncnc1)C12CCC(CC1)N2C [Example 72]	148 nM
CCc1ccccc1C(=O)N[C@H](c1ccccc1)C12CCC(CC1)N2CCOC [Example 95]	68 nM
Cc1cccc(C)c1C(=O)N[C@H](c1ccccc1)C12CCC(CC1)N2Cc1ccccc1 [Example 25]	174 nM
Cc1cccc(C)c1C(=O)NC(c1cccc(F)c1)C12CCC(CC1)N2 (single isomer, unassigned) [Example 75]	7 nM
Cc1cccc(C)c1C(=O)NC(c1ccc(C#N)cc1)C12CCC(CC1)N2C (stereo not shown) [Example 93]	226 nM
Cc1cccc(C)c1C(=O)N[C@H](c1ccccc1)C12CCC(CC1)N2Cc1cnn(C)c1 [Example 61]	12 nM
Cc1cccc(C)c1C(=O)NC(c1cccc(F)c1)C12CCC(CC1)N2C (single isomer, unassigned) [Example 45]	175 nM
Cc1cccc(C(NC(=O)c2c(C)cccc2C)C23CCC(CC2)N3C)c1 (stereo not shown) [Example 84]	26 nM
COCCN1C2CCC1([C@H](NC(=O)c1ccccc1C)c1ccccc1)CC2 [Example 92]	202 nM
Cc1cccc(C)c1C(=O)NC(c1ccccc1)C12CCC(CC1)N2CC(C)C (stereo not shown) [Example 22]	13 nM
Cc1cccc(C)c1C(=O)NC(c1cccc(C(=O)N(C)C)c1)C12CCC(CC1)N2C (stereo not shown) [Example 88]	57 nM
Cc1cc(C(NC(=O)c2c(C)cccc2C)C23CCC(CC2)N3C)ccn1 (single isomer, unassigned) [Example 85]	23 nM
CSc1ncccc1C(=O)NC(c1ccccc1)C12CCC(CC1)N2C(C)C (single isomer, unassigned) [Example 53]	24 nM
Cc1ccc(C(NC(=O)c2c(C)cccc2C)C23CCC(CC2)N3C)cn1 (single isomer, unassigned) [Example 77]	71 nM
CC(C)N1C2CCC1(C(NC(=O)c1c(Cl)cncc1Cl)c1ccccc1)CC2 (single isomer, unassigned) [Example 54]	100 nM
Cc1cccc(C)c1C(=O)N[C@H](c1ccccc1)C12CCC(CC1)N2C[C@H]1CCCN1 [Example 80]	313 nM
CCN1C2CCC1(C(NC(=O)c1cccnc1SC)c1ccccc1)CC2 (stereo not shown) [Example 51]	107 nM
Cc1cccc(C)c1C(=O)N[C@H](c1ccccc1)C12CCC(CC1)N2CCO [Example 34]	< 1.28 nM
Cc1cc(F)cc(C)c1C(=O)NC(c1ccccc1)C12CCC(CC1)N2C (stereo not shown) [Example 82]	4 nM
Cc1cccc(C)c1C(=O)N[C@H](c1ccccc1)C12CCC(CC1)N2CCN1CCOCC1 [Example 71]	< 2 nM
